According to US6743576B1, “Database system for predictive cellular bioinformatics” (Cytokinetics, Inc., priority 1999, dated 2004):

How the values were obtained:
Format in all cases: cell-based
HeLa cells [1] = assay: Automated Hoechst image analysis of HeLa cells treated with 6 known compounds; conditions: 10 ug/mL, 24 hours, 10x objective, FIG. 11
From the text: In a third experiment, the purpose was to determine whether the automated analysis methods developed in the first experiment can detect differences in Hoechst morphology in the presence of 6 known compounds at one concentration and exposure time in one cell line. In this experiment, HeLa cells were separately treated with 6 compounds with known mechanism of action. The quantitative methods described in the first experiment were applied to the Hoechst images.
Approximately 5,000 HeLa cells per well were plated in a Costar black-walled 96 well tissue culture treated plate and left to recover in the incubator for 24 hours. After this time, 10 ug/mL of cytochalasin D (CD), Taxol, hydroxyurea, vinblastine, nocodazole, and staurosporine was added to different wells at a 1:100 addition in DMSO. The cells were incubated in the presence of drug for 24 more hours. After 24 hours, the cells were removed and fixed as in the first experiment. Then, 9 images per well were collected of the Hoechst staining using a 10× objective.
The low magnification images taken of Hoechst were run through the automated image analysis method described in the first experiment. Plots of the average intensity and area were made of each compound. […] The scatter plots of each compound are visually distinct. […] Furthermore, the number of cells per well was very different (data not shown).

MDCK cells = assay: Effects of Taxol on MDCK cells, Hoechst morphologies manually counted; conditions: 4.5 hours, 10 μM-1pM, FIG. 10
Procedure: In a second experiment, the effects of Taxol on MDCK cells and the different types of morphological effects were observed. A plurality of MDCK cells grown in 96 well plates were treated with Taxol for 4.5 hours at different concentrations (10 μM−1pM). They were then fixed, labeled with Hoechst, and imaged.
This experiment used a labeling protocol comprising: MEOH fix at −20°, Wash in PBS, Block in PBS/BSA/Serum/Triton-X 100, Incubate with 5 μg/ml Hoechst 10 minutes, and wash.
Cells were inspected for different morphologies and manually counted at each different drug concentration in one well. […] The next step is to test the automated Hoechst analysis of the first experiment with multiple drugs.

HeLa cells [2] = assay: High magnification Hoechst and phalloidin images of HeLa cells in the presence of drugs; conditions: 10 ug/mL, 24 hours, 40x objective, vs DMSO control, FIG. 12
Procedure: A fourth experiment was performed to obtain high magnification images of two markers in the presence of drugs. In this experiment, HeLa cells were treated with 80 generic compounds with known mechanism of action. The quantitative methods described in the first experiment were applied to the Hoechst images.
Approximately 5,000 HeLa cells per well were plated in a Costar black walled 96 well tissue culture-treated plate and left to recover in the incubator for 24 hours. After this time, 10 ug/mL of each compound from the Killer Plate from Microsource Discovery Systems (Gaylordsville, Conn.) was added to different wells at a 1:100 addition in DMSO. The cells were incubated in the presence of drug for 24 more hours. After 24 hours, the cells were removed and fixed as in the first experiment. In addition to being labeled with Hoechst 33342 (against chromatin), cells were also labeled with 1 unit of rhodamine-conjugated phalloidin (against actin) for 30 minutes.
The 96 well plate was imaged twice. Once, 9 images per well were collected of the Hoechst staining using a 10× objective. After this, one image per well of both the phalloidin and Hoechst staining was collected using a 40× objective.
The resulting high magnification images were analyzed qualitatively and distinct pattern differences were detected in both the Hoechst and phalloidin images. […] The top row is the Hoechst staining, and the bottom row is the phalloidin staining from the same well. The columns show the images from wells treated with just DMSO (control), cytochalasin D, and Colchicine. Notice that the morphology of each marker is different in the presence of each drug.

| Structure (SMILES) | cell (Hoechst object) size/area compared to control (HeLa cells [1]) | actin cytoskeleton morphology in the phalloidin image (HeLa cells [2]) | further results |
| --- | --- | --- | --- |
| NC(=O)NO [Hydroxyurea, hydroxyurea] | larger |  | brightness (average Hoechst intensity) compared to control (HeLa cells [1]): brighter |
| CC(=O)O[C@H]1C(=O)[C@@]2(C)[C@H]([C@H](OC(=O)c3ccccc3)[C@]3(O)C[C@H](OC(=O)[C@H](O)[C@@H](NC(=O)c4ccccc4)c4ccccc4)C(C)=C1C3(C)C)[C@]1(OC(C)=O)CO[C@@H]1C[C@@H]2O [Taxol, paclitaxel] |  |  | number of normal mitotic cells as a function of drug concentration (MDCK cells): fewer number of normal mitotic cells were detected; proportion of cells undergoing apoptosis as a function of drug concentration (MDCK cells): larger proportion of cells underwent apoptosis |
| COc1cc2c(c(OC)c1OC)-c1ccc(OC)c(=O)cc1[C@@H](NC(C)=O)CC2 [colchicine] |  | there is an effect on the actin cytoskeleton |  |
| C=C1[C@@H](C)[C@H]2[C@H](Cc3ccccc3)NC(=O)[C@]23[C@H](OC(C)=O)/C=C/[C@@](C)(O)C(=O)[C@@H](C)C/C=C/[C@H]3[C@@H]1O [cytochalasin D] | smaller than control | expected effect in the phalloidin image | morphology of the chromatin in the Hoechst image (HeLa cells [2]): there is an effect in the morphology of the chromatin |
